Reference: ChEMBL document CHEMBL3880436, “Pharmaceutical composition containing optically active compound having thrombopoietin receptor agonist activity, and intermediate therefor” (2013)
Active and inactive are the calls of the source. No cut-off for these calls is given here.

Columns and labels:
[1] = molecular target: T1, Thrombopoietin receptor (Homo sapiens) (UniProt P40238); test: Agonist activity at human TPO receptor expressed in mouse BaF-B03 cells assessed as induction of cell proliferation after 20 hrs by WST-1 assay; format: cell-based
T1 sequence (whole entry): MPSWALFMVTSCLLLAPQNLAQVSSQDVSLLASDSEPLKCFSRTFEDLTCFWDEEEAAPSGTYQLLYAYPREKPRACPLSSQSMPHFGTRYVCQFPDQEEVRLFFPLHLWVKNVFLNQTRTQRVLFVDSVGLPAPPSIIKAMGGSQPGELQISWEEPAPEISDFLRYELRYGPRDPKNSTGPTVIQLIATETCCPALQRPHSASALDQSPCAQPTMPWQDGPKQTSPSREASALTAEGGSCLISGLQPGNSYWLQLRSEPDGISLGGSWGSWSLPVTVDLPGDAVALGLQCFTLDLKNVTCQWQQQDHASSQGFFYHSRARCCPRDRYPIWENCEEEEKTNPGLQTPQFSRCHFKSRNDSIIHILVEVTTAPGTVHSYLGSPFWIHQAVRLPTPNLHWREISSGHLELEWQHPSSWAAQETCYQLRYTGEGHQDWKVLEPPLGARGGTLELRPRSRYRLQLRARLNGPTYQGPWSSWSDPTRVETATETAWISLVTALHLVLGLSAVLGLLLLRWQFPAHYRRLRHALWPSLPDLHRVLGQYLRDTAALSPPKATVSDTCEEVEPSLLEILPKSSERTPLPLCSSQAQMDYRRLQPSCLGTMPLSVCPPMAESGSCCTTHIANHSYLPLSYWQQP

[2] = tested on: Mus musculus; test: Increase in platelet levels in mouse expressing human transmembrane site of TPO receptor administered as po bid for 2 weeks measured after 3 days to 3 weeks post initiation of initial dose relative to vehicle-treated control; format: functional, organism-based

ED50 [1]	SMILES	Activity [2]
2.08 nM	CCCCCC[C@H](OC)c1cccc(-c2csc(NC(=O)c3cc(Cl)c(/C=C(\C)C(=O)O)c(Cl)c3)n2)c1OC	Active
3.09 nM	CCCCCC[C@@H](OC)c1cccc(-c2csc(NC(=O)c3cc(Cl)c(/C=C(\C)C(=O)O)c(Cl)c3)n2)c1OC	Active
1.09 nM	CCCCCCO[C@@H](C)c1cccc(-c2csc(NC(=O)c3cc(Cl)c(/C=C(\C)C(=O)O)c(Cl)c3)n2)c1OC	Active

Further lines, the compound ahead of its results:

SMILES	ED50 [1]	Activity [2]
CCCCCCO[C@H](C)c1cccc(-c2csc(NC(=O)c3cc(Cl)c(/C=C(\C)C(=O)O)c(Cl)c3)n2)c1OC	1.4 nM	Active
CCCO[C@H](c1cccc(-c2csc(NC(=O)c3cc(Cl)c(/C=C(\C)C(=O)O)c(Cl)c3)n2)c1OC)C(C)(C)C		Active
